Measured values reported in ChEMBL document CHEMBL5260827, “Fructose-1,6-bisphosphatase inhibitors: A new valid approach for management of type 2 diabetes mellitus” (Eur J Med Chem, 2017).
Each block holds one compound with its values, some of them ahead of it.

Legend:
[1] = organism: Oryctolagus cuniculus
Description: Binding affinity to recombinant rabbit FBPase expressed in Escherichia coli assessed as maximal activity

[2] = biological target: T1, Fructose-1,6-bisphosphatase 1 (Homo sapiens, UniProt P09467); assay: Inhibition of human liver FBPase by spectrophotometric method; format: tissue-based
T1 sequence (P09467 whole entry): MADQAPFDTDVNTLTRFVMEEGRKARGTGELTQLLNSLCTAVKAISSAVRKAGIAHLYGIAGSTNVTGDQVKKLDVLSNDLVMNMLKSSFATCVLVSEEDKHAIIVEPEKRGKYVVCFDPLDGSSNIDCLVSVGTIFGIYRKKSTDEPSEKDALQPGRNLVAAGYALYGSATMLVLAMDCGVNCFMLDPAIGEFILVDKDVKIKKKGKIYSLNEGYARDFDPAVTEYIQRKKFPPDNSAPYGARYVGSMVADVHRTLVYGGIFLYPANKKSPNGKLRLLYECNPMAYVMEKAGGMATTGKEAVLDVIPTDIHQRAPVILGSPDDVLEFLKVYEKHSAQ

[3] = biological target: T1, Fructose-1,6-bisphosphatase 1; assay: Inhibition of human liver FBPase
[4] = biological target: T1, Fructose-1,6-bisphosphatase 1; assay: Inhibition of human liver FBPase expressed in Escherichia coli BL21 (DE3) measured after 48 hrs by spectrophotometry analysis
[5] = Inhibition of Cynomolgus monkey FBPase; set-up: species or system Macaca fascicularis
[6] = Inhibition of rat FBPase
[7] = system: Hepatocyte; assay: Inhibition of glucose production in human hepatocyte assessed as reduction in […]; format: functional, cell-based
[8] = system: Rattus norvegicus; assay: Hypoglycemic activity in ZDF rats assessed as reduction in blood glucose level at 10 to 300 mg/kg, po; format: functional; settings: dose 10-300 mg/kg
[9] = system: Mus musculus; assay: Hypoglycemic activity in db/db mouse assessed as reduction in blood glucose level at 300 mg/kg, po administered for 5 days; format: functional; settings: time 5 day
[10] = Oral bioavailability in cynomolgus monkey at 10 mg/kg; format: ADME, organism-based, Macaca fascicularis; settings: in vivo
[11] = Cmax in Cynomolgus monkey at 10 mg/kg, po measured after 3 hrs by LC/MS/MS analysis; format: ADME, organism-based, Macaca fascicularis; set-up: dose 10 mg/kg, time 3 hrs, route po; settings: in vivo
[12] = Half life in Cynomolgus monkey at 10 mg/kg, po; format: ADME, organism-based, Macaca fascicularis; settings: in vivo
[13] = Tmax in Cynomolgus monkey at 10 mg/kg, po upto 24 hrs by LC/MS/MS analysis; format: ADME, organism-based, Macaca fascicularis; settings: in vivo
[14] = biological target: T1, Fructose-1,6-bisphosphatase 1; assay: biochemical

SMILES: CCOc1cc2ncnc(Nc3cccc(Cl)c3)c2cc1OCC
Km [1]: 2.7 µM

SMILES: CC1SC(=O)NN=C1c1ccc2[nH]c(-c3ccc(-n4ccnc4)cc3)nc2c1 (stereo unspecified)
IC50 [2]: 36000 nM

SMILES: N#Cc1ccc(C(C(=O)NCCc2ccc(O)cc2)N2C(=O)C3Cc4ccc(O)cc4CN3C(=O)C2CC2CCCCC2)cc1 (stereo unspecified)
IC50 [2]: 370 nM

SMILES: COc1ccc(CC(=O)Nc2cccc(-c3nnc(-c4ccc(C)cc4)o3)c2)cc1OC
IC50 [3]: 4510 nM

SMILES: O=P(O)(O)OC[C@H]1O[C@H](COP(=O)(O)O)[C@@H](O)[C@@H]1O
IC50 [2]: 2000 nM

More lines, main results first:

IC50 [2]: 1600 nM
SMILES: CC1=CC=CN2C(CC(C)C)C(c3ccc(P(=O)(O)O)o3)=NC12 (stereo unspecified)

IC50 [2]: 34 nM
SMILES: CC(C)Cn1c(C2CCC(P(=O)(O)O)O2)nc2c(N)c(F)cc(CCBr)c21 (stereo unspecified)

IC50 [2]: 700 nM
SMILES: CSc1nc(N)c2nc(-c3ccc(P(=O)(O)O)o3)n(CC(C)(C)C)c2n1

IC50 [2]: 11 nM
SMILES: CCCC(C)C(=O)c1sc(N)nc1-c1ccc(P(=O)(O)O)o1 (stereo unspecified)

IC50 [4]: 32 nM
SMILES: COC(=O)c1ccc(S(=O)(=O)n2cccc2)cc1

IC50 [5]: 121 nM | IC50 [6]: 189 nM | bioavailability [10]: 52% | Cmax [11]: 2100 ng/mL | half-life [12]: 7.6 h | Tmax [13]: 3.3 h
SMILES: CC(C)(C)C(=O)c1sc(N)nc1-c1ccc(P(=O)(O)O)o1
EC50 [7]: 140 nM | Activity [8]: 200 mg/dL | Activity [9]: 350 mg/dL

IC50 [3]: 15400 nM
SMILES: COc1ccc(CC(=O)Nc2cccc(-c3nnc(-c4cccc(Cl)c4)o3)c2)cc1OC

IC50 [14]: 700000 nM
SMILES: CSc1nc(N)c2nc(-c3ccc(P(=O)(O)O)o3)n(CC(C)C)c2n1
